pIC50: −log10 of the molar value.
target: HPK1 (Homo sapiens (Human), UniProt Q92918); experiment: HPK1 biochemical enzyme assay (microfluidic mobility shift assay); conditions: 1.5 nM HPK1, ATP 1 mM final, 30 min preincubation, 60 min at RT, Caliper EZ Reader; read-out: HPK1 1000UMATP caliper IC50
In short: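 Mobility shift readout of HPK1 activity after a 60 min RT reaction with 1 mM ATP, 1 μM substrate and 5 mM MgCl2. Enzyme/substrate mix was first exposed to compounds for 30 min, using ten-point curves topping at 3 μM final.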

Sequence of HPK1 (Q92918 whole entry): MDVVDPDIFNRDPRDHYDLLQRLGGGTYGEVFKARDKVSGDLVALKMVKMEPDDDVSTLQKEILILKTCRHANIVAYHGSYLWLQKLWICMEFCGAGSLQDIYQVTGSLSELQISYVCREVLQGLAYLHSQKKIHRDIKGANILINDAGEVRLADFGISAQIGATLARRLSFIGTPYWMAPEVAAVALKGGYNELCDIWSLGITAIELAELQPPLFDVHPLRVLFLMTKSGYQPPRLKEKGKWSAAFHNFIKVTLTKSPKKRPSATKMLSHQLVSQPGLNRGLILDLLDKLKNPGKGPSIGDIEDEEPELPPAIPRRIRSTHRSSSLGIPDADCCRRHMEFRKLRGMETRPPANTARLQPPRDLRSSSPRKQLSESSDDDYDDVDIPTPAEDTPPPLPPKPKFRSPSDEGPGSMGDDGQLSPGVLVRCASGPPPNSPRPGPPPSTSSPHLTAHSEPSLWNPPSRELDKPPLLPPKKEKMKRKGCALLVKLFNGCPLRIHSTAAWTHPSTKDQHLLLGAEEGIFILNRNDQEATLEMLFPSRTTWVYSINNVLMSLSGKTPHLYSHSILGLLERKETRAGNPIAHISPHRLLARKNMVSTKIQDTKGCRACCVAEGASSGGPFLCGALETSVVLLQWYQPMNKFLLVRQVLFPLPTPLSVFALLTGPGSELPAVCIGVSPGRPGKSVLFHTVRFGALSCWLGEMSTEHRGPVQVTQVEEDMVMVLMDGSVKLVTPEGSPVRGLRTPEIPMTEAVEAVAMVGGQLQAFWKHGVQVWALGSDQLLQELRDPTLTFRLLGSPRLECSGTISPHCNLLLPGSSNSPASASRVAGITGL

Row | Structure (SMILES) | pIC50
1 | O=C1NCc2c(-c3cnn4cccnc34)ccc(Nc3ccc(N4CCNCC4)cn3)c21 [I-117, 7-[(5-piperazin-1-yl-2-pyridyl)amino]-4-pyrazolo[1,5-a]pyrimidin-3-yl-isoindolin-1-one] | > 7.00
2 | C[C@H]1COCCN1c1ccc(Nc2ccc(-c3cnc4cc(F)ccn34)c3c2C(=O)NC3)nc1CN(C)C [I-531, 7-[[6-[(dimethylamino)-methyl]-5-[(3S)-3-methylmorpho-lin-4-yl]-2-pyridyl]amino] 4-(7-fluoroimidazo [1,2-a]pyridin-3-yl)isoindolin-1-one] | > 7.00
3 | O=C1NCc2c(-c3cnc4cnccn34)ncc(Nc3ccc(N4CCC(O)CC4)cn3)c21 [I-208, 7-[[5-(4-hydroxy-1-piperidyl)-2-pyridyl]-amino]-4-imidazo[1,2-a]pyrazin-3-yl-2,3-dihydropyrrolo [3,4-c]pyridin-1-one] | 6.00 to 7.00
4 | O=C1NCc2c(-c3cnc4cc(F)ccn34)ccc(Nc3ccc(N4CCO[C@H](CO)C4)cn3)c21 [I-454, 4-(7-fluoroimidazo [1,2-a]pyridin-3-yl)-7-[[5-[(2S)-2-(hydroxymeth-yl)morpliolin-4-yl]-2-pyridyl]amino] isoindolin-1-one] | > 7.00
5 | CN1CCN(c2ccc(Nc3ccc(-c4cnc5n4CCNC5)c4c3C(=O)NC4)nc2)CC1 [I-92] | > 7.00
6 | O=C1NCc2c(-c3cnc4cc(F)ccn34)ccc(Nc3ccc(N4CC[C@H](F)[C@H](O)C4)cn3)c21 [I-359, 7-((5-((3R,4S)-4-fluoro-3-hydroxy-piperidin-1-yl)pyridin-2-yl)amino)-4-(7-fluoroimidazo [1,2-a]pyridin-3-yl)isoindolin-1-one] | > 7.00
7 | Cc1ccc2ncc(-c3ccc(Nc4ccc(N5CCN(C)CC5)cn4)c4c3CNC4=O)n2c1 [I-51, 4-(6-methylimidazo [1,2-a]pyridin-3-yl-)-7-[[5-(4-methylpiperazin-1-yl)-2-pyridyl]amino] isoindolin-1-1-one] | > 7.00
8 | Cn1ccc2c(-c3ncc(Nc4ccc(N5CC[C@@H](F)[C@H](O)C5)cn4)c4c3CNC4=O)ccnc21 [I-416, 7-((5-((3R,4R)-4-fluoro-3-hydroxy-piperidin-1-yl)pyridin-2-yl)amino)-4-(1-methyl-1H-pyrrolo[2,3-b]pyridin-4-yl)-2,3-dihydro-1H-pyrrolo[3,4-c]pyridin-1-one] | > 7.00
9 | Cn1ccc2c(-c3ncc(Nc4cccc(N5C[C@H](N6CCC6)CC5=O)n4)c4c3CNC4=O)ccnc21 [I-724, (R)-7-((6-(4-(azetidin-1-yl)-2-oxopyrrolidin-1-yl)pyridin-2-yl)amino)-4-(1-methyl-1H-pyrrolo[2,3-b]pyridin-4-yl)-2,3-dihydro-1H-pyrrolo[3,4-c]pyridin-1-one] | 6.00 to 7.00
10 | Cn1ccc2c(-c3ccc(Nc4cccc(N5CCC(O)CC5)n4)c4c3CNC4=O)ccnc21 [I-147, 7-[[6-(4-hydroxy-1-piperidyl)-2-pyridyl]amino]-4-(1-methylpyrrolo [2,3-b]pyridin-4-yl)isoindolin-1-one] | 6.00 to 7.00
11 | CN(C)Cc1nc(Nc2ccc(-c3cnc4cc(F)ccn34)c3c2C(=O)NC3)ccc1N1CCO[C@H](C(C)(C)O)C1 [I-774, (S)-7-((6-((dimethylamino)-methyl)-5-(2-(2-hydroxypropan-2-yl)morpho-lino)pyridin-2-yl)amino)-4-(7-fluoroimidazo [1,2-a]pyridin-3-yl)isoindolin-1-one] | > 7.00
12 | Cc1ccn2c(-c3ccc(Nc4ccc(N5CCC(O)CC5)cn4)c4c3CNC4=O)cnc2c1 [I-126, 7-[[5-(4-hydroxy-1-piperidyl)-2-pyridyl]amino]-4-(7-methylimidazo [1,2-a]pyridin-3-yl)isoindolin-1-one] | > 7.00
13 | O=C1NCc2c(-c3cnn4cccnc34)ccc(Nc3ccc(N4CCC(O)CC4)cn3)c21 [I-157, 7-[[5-(4-hydroxy-1-piperidyl)-2-pyridyl]amino]-4-pyrazolo[1,5-a]pyrimidin-3-yl-isoindolin-1-one] | > 7.00
14 | Cn1ccc2c(-c3ncc(Nc4cccc(N5C[C@@H](N)CC5=O)n4)c4c3CNC4=O)ccnc21 [I-692, (S)-7-((6-(4-amino-2-oxopyrrolidin-1-yl)pyridin-2-yl)amino)-4-(1-methyl-1H-pyrrolo[2,3-b]pyridin-4-yl)-2,3-dihydro-1H-pyrrolo[3,4-c]pyridin-1-one] | > 7.00
15 | COCCNc1ccn2c(-c3ccc(Nc4ccc(N5CCOCC5)cn4)c4c3CNC4=O)cnc2c1 [I-206, 4-[7-(2-methoxyethyl-amino)imidazo [1,2-a]pyridin-3-yl]-7-[(5-morpholino-2-pyridyl)amino] isoindolin-1-one] | 6.00 to 7.00
16 | Cn1ccc2c(-c3ncc(Nc4cccc(C5(C)CCNCC5)n4)c4c3CNC4=O)ccnc21 [I-430, 4-(1-methyl-1H-pyrrolo[2,3-b]pyridin-4-yl)-7-((6-(4-methylpiperidin-4-yl)pyridin-2-yl)amino)-2,3-dihydro-1H-pyrrolo[3,4-c]pyridin-1-one] | < 6.00
17 | CCn1ccc2c(-c3ccc(Nc4ccc(N5CCN(C)CC5)cn4)c4c3CNC4=O)ccnc21 [I-49] | > 7.00
18 | O=C1NCc2c(-c3cnc4cc(F)ccn34)ccc(Nc3ccc(N4CCC[C@](O)(CN5CCOCC5)C4)cn3)c21 [I-657, (S)-4-(7-fluoroimidazo [1,2-a]pyridin-3-yl)-7-((5-(3-hydroxy-3-(morpholinomethyl)piperidin-1-yl)pyridin-2-yl)amino)isoin-dolin-1-one] | > 7.00

Row | Structure (SMILES) | pIC50
19 | CN(Cc1nc(Nc2ccc(-c3cnc4cc(F)ccn34)c3c2C(=O)NC3)ccc1[C@@H]1CCOC1)C1COC1 [I-744, (S)-4-(7-fluoroimidazo [1,2-a]pyridin-3-yl)-7-((6-((methyl(oxe-tan-3-yl)amino)meth-yl)-5-(tetrahydrofuran-3-yl)pyridin-2-yl)amino)isoin-dolin-1-one] | > 7.00
20 | C[C@H](O)[C@H]1CN(c2ccc(Nc3ccc(-c4cnc5cc(F)ccn45)c4c3C(=O)NC4)nc2)CCO1 [I-634, 4-(7-fluoroimidazo[1,2-a]pyridin-3-yl)-7-((5-((R)-2-((S)-1-hydroxyethyl)morpholino)pyridin-2-yl)amino)isoindolin-1-one] | > 7.00
21 | Cc1ccn2c(-c3ccc(Nc4ccc(N5CCN(C)CC5)cn4)c4c3CNC4=O)cnc2c1 [I-64, 4-(7-methylimidazo [1,2-a]pyridin-3-yl)-7-[[5-(4-methylpiperazin-1-yl)-2-pyridyl]amino] isoindolin-1-one] | > 7.00
22 | CN1CCC(C)(c2ccc(Nc3ccc(-c4ccnc5c4ccn5C)c4c3C(=O)NC4)nc2)CC1 [I-275, 7-((5-(1,4-dimethyl-piperidin-4-yl)pyridin-2-yl)amino)-4-(1-methyl-1H-pyrrolo[2,3-b]pyridin-4-yl)isoindolin-1-one] | > 7.00
23 | Cc1cccc2c(-c3ccc(Nc4ccc(N5CCC(O)CC5)cn4)c4c3CNC4=O)cnn12 [I-136, 7-[[5-(4-hydroxy-1-piperidyl)-2-pyripyl]amino]-4-(7-methylpyrazolo[1,5-a]pyridin-3-yl)isoindolin-1-one] | > 7.00
24 | Cn1ccc2c(-c3ncc(Nc4ccc([C@H]5CCOC5)cn4)c4c3CNC4=O)ccnc21 [I-217, (R)-4-(1-methyl-1H-pyrrolo[2,3-b]pyridin-4-yl)-7-((5-(tetrahydro-furan-3-yl)pyridin-2-yl)amino)-2,3-dihydro-1H-pyrrolo[3,4-c]pyridin-1-one] | > 7.00
25 | CN(C)Cc1nc(Nc2ccc(-c3cnc4cc(F)ccn34)c3c2C(=O)NC3)cnc1C1CCOC1 (stereo in doubt) [I-799, (S)-7-((6-((dimethylamino)-methyl)-5-(tetrahydrofu-ran-3-yl)pyrazin-2-yl)amino)-4-(7-fluoroimidazo [1,2-a]pyridin-3-yl)isoindolm-1-one] | > 7.00
26 | O=C1NCc2c(-c3cnc4cc(F)ccn34)ccc(Nc3ccc(N4CCO[C@H](C5(O)CC5)C4)cn3)c21 (single isomer, unassigned) [I-662] | > 7.00
27 | CO[C@H]1CCN(Cc2nc(Nc3ccc(-c4cnc5cc(F)ccn45)c4c3C(=O)NC4)ccc2[C@@H]2CCOC2)C1 [I-790, 4-(7-fluoroimidazo [1,2-a]pyridin-3-yl)-7-((6-(((S)-3-methoxypyrrol-idin-1-yl)methyl)-5-((S)-tetrahydiofuran-3-yl)pyridin-2-yl)amino)isoin-dolin-1-one] | > 7.00
28 | CN(C)Cc1nc(Nc2ccc(-c3cnc4cc(F)ccn34)c3c2C(=O)NC3)ccc1C1(C)CCOC1 (centres unmarked) [I-843, 7-((6-((dimethylamino)-methyl)-5-(3-methylTHF-3-yl)pyridin-2-yl)amino)-4-(7-fluoroimidazo [1,2-a]pyridin-3-yl)isoindolin-1-one] | > 7.00
29 | Cc1ccn2c(-c3ccc(Nc4ccc(C5CCOC5)cn4)c4c3CNC4=O)cnc2c1 (centres unmarked) [I-155] | > 7.00
30 | CC(C)(N)[C@@H]1CN(c2ccc(Nc3ccc(-c4cnc5cc(F)ccn45)c4c3C(=O)NC4)nc2)CCO1 (single isomer, unassigned) [I-670] | > 7.00
31 | CN(Cc1nc(Nc2ccc(-c3cnc4cc(F)ccn34)c3c2C(=O)NC3)ccc1[C@@H]1CCOC1)C1CC1 [I-738] | > 7.00
32 | O=C1NCc2c(-c3cnc4cnccn34)ccc(Nc3ccc(N4CC(O)C4)cn3)c21 [I-315, 7-((5-(3-hydroxyazeti-din-1-yl)pyridin-2-yl)amino)-4-(imidazo[1,2-a]pyrazin-3-yl)isoindolin-1-one] | > 7.00
33 | CN(C)Cc1nc(Nc2ccc(-c3cnc4cc(F)ccn34)c3c2C(=O)NC3)ccc1[C@@H]1CCCOC1 [I-551] | > 7.00
34 | O=C1NCc2c(-c3cnc4c(F)cccn34)ncc(Nc3ccc(N4CC[C@@H](F)[C@H](O)C4)cn3)c21 [I-652, 7-((5-((3R,4R)-4-fluoro-3-hydroxypiperidin-1-yl)pyridin-2-yl)amino)-4-(8-fluoroimidazo [1,2-a]pyridin-3-yl)-2,3-dihydro-1H-pyrrolo[3,4-c]pyridin-1-one] | > 7.00
35 | C[C@@H](O)[C@H]1CN(c2ccc(Nc3ccc(-c4cnc5cc(F)ccn45)c4c3C(=O)NC4)nc2)CCO1 (single isomer, unassigned) [I-619] | > 7.00

From patent US11021481B2, “Substituted isoindolin-1-ones and 2,3-dihydro-1h-pyrrolo[3,4-c]pyridin-1-ones as HPK1 antagonists” (Nimbus Saturn, Inc., priority 2019, dated 2021)
